Results on 22 compounds are retold here after paper PMC12865480 (Pharmaceuticals, 2025).

Values joined by “and” are separate entries in the source; they are usually repeats but may differ in a detail not shown here. Identical values can stand only once. Like-named read-outs stand apart in the source and are kept apart here. Where only a bound is given, the exact number is not on record here.

Series [1] addresses PCP binding site of the NMDA receptor. The settings on record: earlier study; cited from earlier work.
In another series the target is T1, σ2 receptor (Rattus norvegicus, UniProt Q5U3Y7).
T1 sequence (Q5U3Y7 1-176): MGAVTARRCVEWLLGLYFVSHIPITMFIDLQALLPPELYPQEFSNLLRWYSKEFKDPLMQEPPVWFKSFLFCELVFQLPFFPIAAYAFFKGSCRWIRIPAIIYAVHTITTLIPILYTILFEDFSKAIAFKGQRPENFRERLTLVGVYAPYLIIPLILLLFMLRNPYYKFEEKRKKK
The series can be described thus: biochemical. It is filed as binding. The settings on record: read-out: Ki ± SEM σ2.

For series [2], the target named is PCP binding site of the NMDA receptor. The series can be described thus: PCP binding site assay, radioligand [3H](+)-MK-801, pig brain preparations. As to conditions: n = 3, values without SEM mean of two experiments.
The target in series [3] is T2, ifenprodil binding site of NMDA receptors with GluN2B subunit (Homo sapiens, UniProt Q05586+Q13224).
T2 construct: expressed in transfected cells; host or cells: mouse L(tk-) cells, stably transfected, expression induced with dexamethasone; membrane homogenate
The series is described as follows: biochemical.

Series [4] concerns the target T3, σ1 receptor (Cavia porcellus, UniProt Q60492). As to conditions: for σ1:σ2 receptor selectivity: σ1 over σ2.
For series [5] the following is noted: after 90 min incubation with mouse liver microsomes and NADPH. (Liver microsomes are vesicles of endoplasmic reticulum, rich in cytochrome P450 enzymes.)
The nature of another series: physchem. As to conditions: pH 7.4.
The target of series [6] is T3, σ1 receptor. The series is described as follows: biochemical.
The target of another series is κ-opioid receptor (Cavia porcellus, UniProt P41144). The series is described as follows: κ-opioid receptor binding study. As to conditions: read-out: inhibition of the radioligand binding, κ receptor.
For series [7], the target named is T3, σ1 receptor. As to conditions: earlier study; cited from earlier work.
In another series the target is µ-opioid receptor (Cavia porcellus, UniProt A0ACM8Q262). The series is described as follows: µ-opioid receptor binding study. The settings on record: read-out: inhibition of the radioligand binding, µ receptor.
The next series deals with δ-opioid receptor (Rattus norvegicus, UniProt P33533). The series is described as follows: δ-opioid receptor binding study. As to conditions: read-out: inhibition of the radioligand binding, δ receptor.
Chain of δ-opioid receptor (P33533 whole entry): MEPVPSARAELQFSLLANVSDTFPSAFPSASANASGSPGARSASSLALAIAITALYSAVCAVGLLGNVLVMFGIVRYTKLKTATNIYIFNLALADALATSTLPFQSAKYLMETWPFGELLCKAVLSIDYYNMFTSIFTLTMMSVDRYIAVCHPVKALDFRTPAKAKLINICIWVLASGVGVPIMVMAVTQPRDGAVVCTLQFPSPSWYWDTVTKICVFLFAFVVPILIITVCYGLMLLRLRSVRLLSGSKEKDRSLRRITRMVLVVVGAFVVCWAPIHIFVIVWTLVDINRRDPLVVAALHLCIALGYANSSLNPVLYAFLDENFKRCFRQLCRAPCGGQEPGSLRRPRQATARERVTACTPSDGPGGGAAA

T3 sequence (Q60492 whole entry): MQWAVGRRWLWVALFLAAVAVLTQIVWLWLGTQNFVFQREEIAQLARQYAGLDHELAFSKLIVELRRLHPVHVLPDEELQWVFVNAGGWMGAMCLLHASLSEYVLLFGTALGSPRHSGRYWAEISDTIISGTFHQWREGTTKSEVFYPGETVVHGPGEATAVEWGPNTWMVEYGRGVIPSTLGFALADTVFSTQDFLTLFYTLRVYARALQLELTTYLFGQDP
Chain of κ-opioid receptor (P41144 whole entry): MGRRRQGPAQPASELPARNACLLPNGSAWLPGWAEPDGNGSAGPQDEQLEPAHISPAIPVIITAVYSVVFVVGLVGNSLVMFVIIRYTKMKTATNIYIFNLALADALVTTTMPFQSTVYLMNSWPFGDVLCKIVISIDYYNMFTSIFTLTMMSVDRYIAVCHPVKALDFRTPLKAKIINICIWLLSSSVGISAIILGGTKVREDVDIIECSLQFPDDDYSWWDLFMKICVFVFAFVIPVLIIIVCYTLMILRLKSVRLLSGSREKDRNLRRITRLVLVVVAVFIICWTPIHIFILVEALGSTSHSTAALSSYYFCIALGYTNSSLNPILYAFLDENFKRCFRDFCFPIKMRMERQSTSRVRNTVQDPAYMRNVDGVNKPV
T2 sequence (Q13224 27-1484, other chains not shown): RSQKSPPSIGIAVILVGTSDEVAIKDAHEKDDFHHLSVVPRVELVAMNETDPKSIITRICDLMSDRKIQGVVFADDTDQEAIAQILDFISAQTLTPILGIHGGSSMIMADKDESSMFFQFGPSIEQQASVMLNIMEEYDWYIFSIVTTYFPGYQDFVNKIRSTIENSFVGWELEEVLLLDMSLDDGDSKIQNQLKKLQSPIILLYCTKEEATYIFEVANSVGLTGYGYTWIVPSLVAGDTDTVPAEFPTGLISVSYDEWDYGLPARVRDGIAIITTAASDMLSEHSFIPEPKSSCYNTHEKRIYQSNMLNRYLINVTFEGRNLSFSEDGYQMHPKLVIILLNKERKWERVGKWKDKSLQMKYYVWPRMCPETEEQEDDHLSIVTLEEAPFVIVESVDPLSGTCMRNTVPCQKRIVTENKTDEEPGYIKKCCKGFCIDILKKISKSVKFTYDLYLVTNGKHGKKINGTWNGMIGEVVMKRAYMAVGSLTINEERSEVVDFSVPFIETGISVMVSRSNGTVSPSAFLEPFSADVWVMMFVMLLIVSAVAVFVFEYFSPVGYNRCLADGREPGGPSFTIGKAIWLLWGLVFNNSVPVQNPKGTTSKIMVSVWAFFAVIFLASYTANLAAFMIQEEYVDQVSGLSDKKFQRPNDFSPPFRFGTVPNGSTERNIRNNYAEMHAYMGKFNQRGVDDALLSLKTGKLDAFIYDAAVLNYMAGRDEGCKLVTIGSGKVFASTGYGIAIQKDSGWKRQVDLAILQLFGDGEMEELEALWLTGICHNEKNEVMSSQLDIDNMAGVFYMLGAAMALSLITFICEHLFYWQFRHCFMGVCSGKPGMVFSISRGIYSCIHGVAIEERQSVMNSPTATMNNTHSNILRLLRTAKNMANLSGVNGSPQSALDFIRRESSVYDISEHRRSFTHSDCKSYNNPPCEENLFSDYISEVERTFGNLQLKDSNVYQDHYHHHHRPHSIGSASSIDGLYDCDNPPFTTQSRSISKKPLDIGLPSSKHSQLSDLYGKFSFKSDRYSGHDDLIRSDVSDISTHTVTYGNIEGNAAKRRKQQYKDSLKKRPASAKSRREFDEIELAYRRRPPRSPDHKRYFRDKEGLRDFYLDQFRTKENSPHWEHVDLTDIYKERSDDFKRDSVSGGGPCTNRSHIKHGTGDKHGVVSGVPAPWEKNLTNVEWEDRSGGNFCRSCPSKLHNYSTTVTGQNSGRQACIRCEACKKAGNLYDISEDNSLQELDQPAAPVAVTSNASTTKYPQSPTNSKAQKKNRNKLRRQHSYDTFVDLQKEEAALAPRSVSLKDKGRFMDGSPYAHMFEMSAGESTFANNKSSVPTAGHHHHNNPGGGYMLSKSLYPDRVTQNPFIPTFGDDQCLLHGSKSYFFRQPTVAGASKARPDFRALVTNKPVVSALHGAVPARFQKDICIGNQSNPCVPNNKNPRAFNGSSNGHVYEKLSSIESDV
Chain of µ-opioid receptor (A0ACM8Q262 1-400): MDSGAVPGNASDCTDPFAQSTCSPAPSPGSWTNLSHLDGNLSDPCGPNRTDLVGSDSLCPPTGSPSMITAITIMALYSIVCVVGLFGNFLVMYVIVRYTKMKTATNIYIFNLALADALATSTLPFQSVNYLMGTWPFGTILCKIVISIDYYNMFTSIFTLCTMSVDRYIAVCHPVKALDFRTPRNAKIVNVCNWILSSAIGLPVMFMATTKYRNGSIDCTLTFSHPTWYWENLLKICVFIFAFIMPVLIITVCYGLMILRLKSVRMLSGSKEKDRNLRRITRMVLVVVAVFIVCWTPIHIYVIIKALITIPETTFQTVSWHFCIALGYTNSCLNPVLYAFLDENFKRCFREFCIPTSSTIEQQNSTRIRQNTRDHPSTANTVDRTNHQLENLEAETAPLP

For `CC[C@]1(c2ccccc2)OC[C@H]([C@@H]2CCCCN2)O1` [etoxadrol], in [1], the inhibition constant (Ki) (usually the dissociation constant of the complex between target and ligand, obtained from inhibition or displacement) was 22 nM.

Take `c1ccc([C@@H]2OCC[C@H](CCCCN3CCCC3)O2)cc1` (relative stereo) [19a, 1-[4-(cis-2-Phenyl-1,3-dioxan-4-yl)butyl]pyrrolidine]: the inhibition constant Ki on σ2 receptor was over 1000 nM; in [2] it was over 1000 nM; in [3] (read-out: Ki ± SEM GluN2B), over 1000 nM; on σ1 receptor [6] (Ki ± SEM σ1), 154 ± 8 nM; at σ1 receptor [6] (pKi(σ1)), 155 nM. Also, the “LLE (ligand-lipophilicity efficiency)” value at σ1 receptor [4] was 6.72. For the same compound, the “Metabolic Stability (5): amount of the remaining unmetabolized parent compound” value in series [5] is 55% and 55 ± 2%. Further, the logD (in general, lipophilicity at a set pH, counting ionised and neutral species) in “physchem” was 0.09 ± 0.05.

Consider `CCC1(c2ccccc2)OCCC(CCCC(c2ccccc2)N2CCCC2)O1` (stereo not drawn) [27b, 1-[4-(trans-2-Ethyl-2-phenyl-1,3-dioxan-4-yl)-1-phenylbutyl]pyrrolidine], for which the inhibition constant (Ki) at σ2 receptor was 64 ± 15 nM; in series [2], over 1000 nM; in series [3], 63 ± 20 nM; on σ1 receptor [6] (Ki ± SEM σ1), 19 ± 0.6 nM; at σ1 receptor [6] (pKi(σ1)), 19.1 nM. Further, the “LLE (ligand-lipophilicity efficiency)” value at σ1 receptor [4] is given as 4.39. Moreover, the “Metabolic Stability (5): amount of the remaining unmetabolized parent compound” value in series [5] is on record as 55 ± 5%. In “physchem”, this compound displayed a pH-dependent lipophilicity (logD) of 3.33 ± 0.08.

`CC[C@]1(c2ccccc2)OCC[C@H](CCCCNCc2ccccc2)O1` (relative stereo) [17b, N-Benzyl-4-(trans-2-ethyl-2-phenyl-1,3-dioxan-4-yl)butan-1-amine]: the Ki on σ2 receptor was 22 ± 1.9 nM; in [2], 569 ± 141 nM; in series [3], 39 ± 13 nM; on σ1 receptor [6] (Ki ± SEM σ1) it was 14 ± 6.1 nM; at σ1 receptor [6] (pKi(σ1)), 14.1 nM. The inhibition (usually the change of the read-out against control, counted positive when it falls) at 1 µM at κ-opioid receptor is 0%. Also, the “LLE (ligand-lipophilicity efficiency)” value on σ1 receptor [4] worked out at 5.20. Moreover, in series [5], the “Metabolic Stability (5): amount of the remaining unmetabolized parent compound” value was found to be 50 ± 4%. The logD in the series “physchem” turned out to be 2.65 ± 0.04.

For `CCC1(c2ccccc2)OCCC(CCCC(NC)c2ccccc2)O1` (stereo not drawn) [25b, 4-(trans-2-Ethyl-2-phenyl-1,3-dioxan-4-yl)-N-methyl-1-phenylbutan-1-amine], the inhibition constant Ki at σ2 receptor was 255 nM; in series [2] it was over 1000 nM; in series [3] (read-out: Ki ± SEM GluN2B) it was 190 ± 39 nM; at σ1 receptor [6] (Ki ± SEM σ1), 58 ± 8.2 nM.

`CC[C@]1(c2ccccc2)OCC[C@H](CCCCNC)O1` (relative stereo) [16b, 4-(trans-2-Ethyl-2-phenyl-1,3-dioxan-4-yl)-N-methylbutan-1-amine]: the Ki on σ2 receptor was 311 nM; in series [2], over 1000 nM; in [3] (read-out: Ki ± SEM GluN2B), over 1000 nM; on σ1 receptor [6] (Ki ± SEM σ1), 107 ± 5 nM.

In the case of `CC[C@]1(c2ccccc2)OCC[C@H](CCCCN2CCCC2)O1` (relative stereo) [19b, 1-[4-(trans-2-Ethyl-2-phenyl-1,3-dioxan-4-yl)butyl]pyrrolidine], the inhibitory constant (Ki) on σ2 receptor is 57 ± 1.9 nM; in series [2], over 1000 nM; in [3], 67 ± 18 nM; at σ1 receptor [6] (Ki ± SEM σ1), 56 ± 19 nM; on σ1 receptor [6] (pKi(σ1)) it was 56.2 nM. Also, on σ1 receptor [4], the “LLE (ligand-lipophilicity efficiency)” value was determined as 5.96. Further, in series [5], the “Metabolic Stability (5): amount of the remaining unmetabolized parent compound” value is reported as 62 ± 2%. The logD in the series “physchem” came to 1.29 ± 0.05.

Take `c1ccc(CNCCC2CCCC(c3ccccc3)O2)cc1` (centres unmarked) [compound 3]: the Ki at σ1 receptor [7] was 6.4 nM.

As to `CC[C@]1(c2ccccc2)OCC[C@H](CCCCN)O1` (relative stereo) [14b, 4-(trans-2-Ethyl-2-phenyl-1,3-dioxan-4-yl)butan-1-amine], the Ki at σ2 receptor was over 1000 nM; in series [2], 731 nM; in series [3] (read-out: Ki ± SEM GluN2B), over 1000 nM; on σ1 receptor [6] (Ki ± SEM σ1), over 1000 nM. Further, at σ1 receptor [6], the half-maximal inhibitory concentration (IC50) (as a rule, the concentration needed to halve the response being measured) was over 1000 nM.

As to `CC[C@]1(c2ccccc2)OCC[C@H](CCCCN(C)Cc2ccccc2)O1` (relative stereo) [18b, N-Benzyl-4-(trans-2-ethyl-2-phenyl-1,3-dioxan-4-yl)-N-methyl-butan-1-amine], the inhibition constant Ki on σ2 receptor is 24 ± 6.3 nM; in series [2] it was over 1000 nM; in series [3], 20 ± 3.3 nM; at σ1 receptor [6] (Ki ± SEM σ1), 8.7 ± 3.6 nM; at σ1 receptor [6] (pKi(σ1)), 8.71 nM. Besides, the inhibition at 1 µM at µ-opioid receptor, on κ-opioid receptor and at δ-opioid receptor was 0% each time. Further, the “LLE (ligand-lipophilicity efficiency)” value on σ1 receptor [4] is listed as 4.52. The “σ1:σ2 receptor selectivity” value on σ1 receptor [4] came to 3 fold. For the same compound, in [5], the “Metabolic Stability (5): amount of the remaining unmetabolized parent compound” value is 36% and 36 ± 1%. In “physchem”, the logD amounted to 3.54 ± 0.06.

Regarding `c1ccc(CNCCCC[C@H]2CCO[C@@H](c3ccccc3)O2)cc1` (relative stereo) [17a, N-Benzyl-4-(cis-2-phenyl-1,3-dioxan-4-yl)butan-1-amine], the Ki on σ2 receptor was 213 nM; in [2], over 1000 nM; in series [3] (read-out: Ki ± SEM GluN2B), over 1000 nM; at σ1 receptor [6] (Ki ± SEM σ1), 31 ± 4 nM; on σ1 receptor [6] (pKi(σ1)), 30.9 nM. Besides, the inhibition at 1 µM on µ-opioid receptor stood at 3%; at κ-opioid receptor, 0%. For the same compound, at σ1 receptor [4], the “LLE (ligand-lipophilicity efficiency)” value is 6.19. Further, at σ1 receptor [4], the “selectivity for the σ1 receptor against the ifenprodil binding site” value is over 30 fold. Further, on σ1 receptor [4] (σ1 over δ-opioid receptor), the “selectivity for the σ1 receptor over δ-opioid receptors” value worked out at 9 fold. In addition, the “σ1:σ2 receptor selectivity” value on σ1 receptor [4] is “approx. 7 fold”. For the same compound, the “Metabolic Stability (5): amount of the remaining unmetabolized parent compound” value in series [5] was 56% and 56 ± 3%. In “physchem”, this compound came in with a logD of 1.32 ± 0.04.

As for `c1ccc(C(CCC[C@H]2CCO[C@@H](c3ccccc3)O2)N2CCCC2)cc1` (relative stereo) [27a, 1-[1-Phenyl-4-(cis-2-phenyl-1,3-dioxan-4-yl)butyl]pyrrolidine], the inhibition constant Ki on σ2 receptor was over 1000 nM; in [2], over 1000 nM; in series [3] (read-out: Ki ± SEM GluN2B) it was 366 nM; on σ1 receptor [6] (Ki ± SEM σ1) it was 161 ± 59 nM; on σ1 receptor [6] (pKi(σ1)) it was 162 nM. In addition, the “LLE (ligand-lipophilicity efficiency)” value at σ1 receptor [4] is 4.59. For the same compound, the “Metabolic Stability (5): amount of the remaining unmetabolized parent compound” value in [5] is 76% and 76 ± 3%. In addition, the logD in the series “physchem” worked out at 2.2 ± 0.07.

`CNC(CCC[C@H]1CCO[C@@H](c2ccccc2)O1)c1ccccc1` (relative stereo) [25a, N-Methyl-1-phenyl-4-(cis-2-phenyl-1,3-dioxan-4-yl)butan-1-amine]: the inhibition constant (Ki) on σ2 receptor was over 1000 nM; in [2], over 1000 nM; in series [3] (read-out: Ki ± SEM GluN2B) it was 716 nM; at σ1 receptor [6] (Ki ± SEM σ1), 144 ± 26 nM.

On to `CCC1(c2ccccc2)OCCC(CCN)O1` (centres unmarked) [2a], for which the Ki is 955 nM at σ1 receptor [7] and 19 nM in [1].

Regarding `c1ccc(CNCCCC2CCOC(c3ccccc3)O2)cc1` (centres unmarked) [compound 4], the Ki at σ1 receptor [7] is 164 nM.

Turning to `NC(CCC[C@H]1CCO[C@@H](c2ccccc2)O1)c1ccccc1` (relative stereo) [24a, 1-Phenyl-4-(cis-2-phenyl-1,3-dioxan-4-yl)butan-1-amine], the inhibition constant (Ki) in [2] is over 1000 nM; in [3] (read-out: Ki ± SEM GluN2B), 1350 nM; on σ1 receptor [6] (Ki ± SEM σ1), over 1000 nM.

Consider `CCC1(c2ccccc2)OCCC(CCNCc2ccccc2)O1` (centres unmarked) [2b], for which the inhibition constant Ki on σ1 receptor [7] was 27 nM.

For the compound `CNCCCC[C@H]1CCO[C@@H](c2ccccc2)O1` (relative stereo) [16a, N-Methyl-4-(cis-2-phenyl-1,3-dioxan-4-yl)butan-1-amine], the inhibitory constant (Ki) is over 1000 nM at σ2 receptor, over 1000 nM in series [2], over 1000 nM in series [3] (read-out: Ki ± SEM GluN2B) and 842 nM at σ1 receptor [6] (Ki ± SEM σ1).

On to `CCC1(c2ccccc2)OCCC(CCCC(NCc2ccccc2)c2ccccc2)O1` (stereo not drawn) [26b, N-Benzyl-4-(trans-2-ethyl-2-phenyl-1,3-dioxan-4-yl)-1-phenylbutan-1-amine], for which the Ki was 139 nM on σ2 receptor, over 1000 nM in [2], 257 ± 57 nM in series [3] (read-out: Ki ± SEM GluN2B) and 88 ± 43 nM on σ1 receptor [6] (Ki ± SEM σ1).

Take `c1ccc(CNC(CCC[C@H]2CCO[C@@H](c3ccccc3)O2)c2ccccc2)cc1` (relative stereo) [26a, N-Benzyl-1-phenyl-4-(cis-2-phenyl-1,3-dioxan-4-yl)butan-1-amine]: the Ki at σ2 receptor was 907 nM; in [2], over 1000 nM; in [3] (read-out: Ki ± SEM GluN2B), over 1000 nM; on σ1 receptor [6] (Ki ± SEM σ1) it was 918 nM.

For the compound `CCC1(c2ccccc2)OCCC(CCCC(N)c2ccccc2)O1` (stereo not drawn) [24b, 4-(trans-2-Ethyl-2-phenyl-1,3-dioxan-4-yl)-1-phenylbutan-1-amine], the Ki on σ2 receptor turned out to be 170 nM; in series [2] it was 524 nM; in [3] (read-out: Ki ± SEM GluN2B), 136 ± 36 nM; at σ1 receptor [6] (Ki ± SEM σ1), 427 nM.

For `NCCCC[C@H]1CCO[C@@H](c2ccccc2)O1` (relative stereo) [14a, 4-(cis-2-Phenyl-1,3-dioxan-4-yl)butan-1-amine], the Ki (at σ2 receptor; in series [2]; in series [3] (read-out: Ki ± SEM GluN2B); at σ1 receptor [6] (Ki ± SEM σ1)) was over 1000 nM throughout. The compound also gave an IC50 against σ1 receptor [6] of over 1000 nM.
